Source: paper PMC9645390, “Amphiphilic stilbene derivatives attenuate the neurotoxicity of soluble Aβ42 oligomers by controlling their interactions with cell membranes” (Chemical Science, 2022)

Biological target: T1, human serum albumin (HSA) (Homo sapiens, UniProt P02768)
T1 construct: purchased
Test: Fluorescence turn-on with human serum albumin (selectivity)
Format: binding
Settings: compound 5 µM, HSA 1 mg/mL, Aβ42 fibrils 25 µM for comparison
Protocol: To investigate whether these amphiphilic compounds can interact with different Aβ species, we recorded the fluorescence intensity changes in the absence and presence of Aβ42 fibrils and oligomers, respectively, which were prepared as previously reported.[28] […] The enhanced fluorescence intensity and blue shift are possibly due to the restriction in a rotation of the aromatic rings and the changes of hydrophobicity at the Aβ binding sites. […] Comparing the ZY-17 series with the other series of compounds, we believe that the thiophene ring in the stilbene-like binding scaffold is essential for the selectively toward Aβ species, while the more hydrophobic tri-benzene rings might lead to unspecific binding to other proteins; such a design principle will be key for the development of second-generation compounds with increased Aβ-binding selectivity.
Figure S4. Fluorescence turn-on effects of amphiphilic compounds with HAS; [compound] = 5 µM, [Aβ42 fibrils] = […]

T1 sequence (P02768 25-609): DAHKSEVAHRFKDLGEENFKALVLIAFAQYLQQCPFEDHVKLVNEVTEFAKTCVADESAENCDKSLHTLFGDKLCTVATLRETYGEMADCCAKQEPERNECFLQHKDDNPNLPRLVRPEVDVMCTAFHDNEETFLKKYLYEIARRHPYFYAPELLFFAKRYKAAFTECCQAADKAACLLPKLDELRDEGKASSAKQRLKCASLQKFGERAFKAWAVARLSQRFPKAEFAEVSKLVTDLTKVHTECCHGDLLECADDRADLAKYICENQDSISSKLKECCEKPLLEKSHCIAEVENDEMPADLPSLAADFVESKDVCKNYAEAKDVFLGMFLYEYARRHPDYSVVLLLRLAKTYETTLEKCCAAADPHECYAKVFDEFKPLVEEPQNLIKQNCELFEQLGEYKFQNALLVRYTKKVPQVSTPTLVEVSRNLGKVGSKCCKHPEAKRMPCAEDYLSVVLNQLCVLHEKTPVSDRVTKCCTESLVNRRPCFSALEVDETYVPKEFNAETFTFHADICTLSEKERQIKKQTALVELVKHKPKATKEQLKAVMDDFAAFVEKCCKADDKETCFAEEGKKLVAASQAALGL

COc1cc(OC)cc(-c2ccc(/C=C/c3cc(CN4CCN(C)CCN(C)CC4)c(O)c(OC)c3)cc2)c1 [ZY-17-OMe]
fluorescence turn-on in the presence of HSA (in words): even higher fluorescence intensity increase in the presence of HSA than for Aβ42 fibrils

COc1cc(OC)cc(-c2ccc(/C=C/c3cc(CN4CCN(C)CCN(C)CC4)c(O)c(CN4CCN(C)CCN(C)CC4)c3)cc2)c1 [ZY-17-DT]
fluorescence turn-on in the presence of HSA (in words): even higher fluorescence intensity increase in the presence of HSA than for Aβ42 fibrils
